Reference: ChEMBL document CHEMBL5576112, “Synthesis, in silico, in vitro evaluation of furanyl- and thiophenyl-3-phenyl-1H-indole-2-carbohydrazide derivatives as tubulin inhibitors and anticancer agents” (RSC Med Chem, 2024)
Activity calls are given as the source filed them. No cut-off for these calls is given here.

Legend:
Sus scrofa [1] = species: Sus scrofa; assay: Inhibition of porcine brain tubulin polymerization assessed as microtubule destabilization at 10 uM measured at 60 secs interval for 60 mins in presence of GTP by fluorescence assay
NCI-H522 [2] = assay: Growth inhibition of human NCI-H522 cells measured after 48 hrs by sulforhodamine B assay; format: functional; conditions: for CC50: read-out: LC50 (the source's name)
COLO 205 [3] = assay: Growth inhibition of human COLO 205 cells measured after 48 hrs by sulforhodamine B assay; format: functional; conditions: for CC50: read-out: LC50 (the source's name)
MDA-MB-435 [4] = assay: Growth inhibition of human MDA-MB-435 cells measured after 48 hrs by sulforhodamine B assay; format: functional; conditions: for CC50: read-out: LC50 (the source's name)
SK-MEL-5 [5] = assay: Growth inhibition of human SK-MEL-5 cells measured after 48 hrs by sulforhodamine B assay; format: functional; conditions: for CC50: read-out: LC50 (the source's name)
NCI-H522 [6] = assay: Growth inhibition of human NCI-H522 cells at 10 uM measured after 48 hrs by sulforhodamine B assay; format: functional, cell-based
COLO 205 [7] = assay: Growth inhibition of human COLO 205 cells at 10 uM measured after 48 hrs by sulforhodamine B assay; format: functional, cell-based
MDA-MB-435 [8] = assay: Growth inhibition of human MDA-MB-435 cells at 10 uM measured after 48 hrs by sulforhodamine B assay; format: functional, cell-based
SK-MEL-5 [9] = assay: Growth inhibition of human SK-MEL-5 cells at 10 uM measured after 48 hrs by sulforhodamine B assay; format: functional, cell-based
Sus scrofa [10] = species: Sus scrofa; assay: Inhibition of porcine brain tubulin polymerization assessed as microtubule destabilization by measuring relative fluorescence unit at 10 uM measured at 60 secs interval for 60 mins in presence of GTP by fluorescence assay
UACC-62 [11] = assay: Growth inhibition of human UACC-62 cells measured after 48 hrs by sulforhodamine B assay; format: functional; conditions: for CC50: read-out: LC50 (the source's name)
OVCAR-8 [12] = assay: Growth inhibition of human OVCAR-8 cells measured after 48 hrs by sulforhodamine B assay; format: functional; conditions: for CC50: read-out: LC50 (the source's name)
MCF7 [13] = assay: Growth inhibition of human MCF7 cells measured after 48 hrs by sulforhodamine B assay; format: functional
K562 [14] = assay: Growth inhibition of human K562 cells measured after 48 hrs by sulforhodamine B assay; format: functional; conditions: for CC50: read-out: LC50 (the source's name)
UACC-62 [15] = assay: Growth inhibition of human UACC-62 cells at 10 uM measured after 48 hrs by sulforhodamine B assay; format: functional, cell-based
OVCAR-8 [16] = assay: Growth inhibition of human OVCAR-8 cells at 10 uM measured after 48 hrs by sulforhodamine B assay; format: functional, cell-based
MCF7 [17] = assay: Growth inhibition of human MCF7 cells at 10 uM measured after 48 hrs by sulforhodamine B assay; format: functional, cell-based
K562 [18] = assay: Growth inhibition of human K562 cells at 10 uM measured after 48 hrs by sulforhodamine B assay; format: functional, cell-based

| Compound | GI50 (NCI-H522 [2]) [nM] | CC50 (NCI-H522 [2]) [nM] | GI50 (COLO 205 [3]) [nM] | CC50 (COLO 205 [3]) [nM] | GI50 (MDA-MB-435 [4]) [nM] | CC50 (MDA-MB-435 [4]) [nM] | GI50 (SK-MEL-5 [5]) [nM] | CC50 (SK-MEL-5 [5]) [nM] | growth inhibition (GI) (NCI-H522 [6]) | growth inhibition (GI) (COLO 205 [7]) | growth inhibition (GI) (MDA-MB-435 [8]) | growth inhibition (GI) (SK-MEL-5 [9]) | GI50 (UACC-62 [11]) [nM] | CC50 (UACC-62 [11]) [nM] | GI50 (OVCAR-8 [12]) [nM] | CC50 (OVCAR-8 [12]) [nM] | GI50 (MCF7 [13]) [nM] | LC50 (MCF7 [13]) [nM] | GI50 (K562 [14]) [nM] | CC50 (K562 [14]) [nM] | also measured |
| --- | --- | --- | --- | --- | --- | --- | --- | --- | --- | --- | --- | --- | --- | --- | --- | --- | --- | --- | --- | --- | --- |
| N#Cc1ccc(/C=N/NC(=O)c2[nH]c3ccc(Br)cc3c2-c2ccccc2)s1 | 23 | > 100000 | 195 | > 100000 | 36 | > 100000 | 124 | 4610 | Active | Active | Active | Active | – | – | – | – | – | – | – | – | inhibition (Sus scrofa [1]): inactive |
| O=C(N/N=C/c1ccc(-c2ccc(O)cc2)s1)c1[nH]c2ccc(Br)cc2c1-c1ccccc1 | – | – | – | – | – | – | – | – | Active | Active | Active | Active | – | – | – | – | – | – | – | – | growth inhibition (GI) (NCI-H522 [2]): Active; growth inhibition (GI) (COLO 205 [3]): Active; growth inhibition (GI) (MDA-MB-435 [4]): Active; growth inhibition (GI) (SK-MEL-5 [5]): Active |
| O=C(N/N=C/c1ccco1)c1[nH]c2ccc(Br)cc2c1-c1ccccc1 | 23.9 | > 100000 | 113 | > 100000 | 34 | > 100000 | 88.7 | > 100000 | Active | Active | Active | Active | 39.4 | > 100000 | 121 | > 100000 | 41.4 | > 100000 | 40.7 | > 100000 | RFU (Sus scrofa [10]): 50 a.u.; growth inhibition (GI) (UACC-62 [15]): Active; growth inhibition (GI) (OVCAR-8 [16]): Active; growth inhibition (GI) (MCF7 [17]): Active; growth inhibition (GI) (K562 [18]): Active |
| O=C(N/N=C/c1ccc(-c2cccc([N+](=O)[O-])c2)o1)c1[nH]c2ccc(Br)cc2c1-c1ccccc1 | – | 9130 | – | – | – | – | – | – | Active | – | – | – | – | – | – | – | – | – | – | – | – |
| O=C(N/N=C/c1ccc([N+](=O)[O-])o1)c1[nH]c2ccc(Br)cc2c1-c1ccccc1 | 37.4 | 5390 | 233 | 1790 | 80.8 | 734 | 213 | 2620 | Active | Active | Active | Active | 73.1 | 5290 | 184 | 4190 | 44.3 | > 100000 | 54 | > 100000 | RFU (Sus scrofa [10]): 45 a.u.; growth inhibition (GI) (UACC-62 [15]): Active; growth inhibition (GI) (OVCAR-8 [16]): Active; growth inhibition (GI) (MCF7 [17]): Active; growth inhibition (GI) (K562 [18]): Active |
| O=C(O)c1ccc(-c2ccc(/C=N/NC(=O)c3[nH]c4ccc(Br)cc4c3-c3ccccc3)s2)cc1 | – | – | – | – | – | – | – | – | Active | Active | Active | Active | – | – | – | – | – | – | – | – | growth inhibition (GI) (NCI-H522 [2]): Active; growth inhibition (GI) (COLO 205 [3]): Active; growth inhibition (GI) (MDA-MB-435 [4]): Active; growth inhibition (GI) (SK-MEL-5 [5]): Active |
| O=C(N/N=C/c1ccc(B(O)O)s1)c1[nH]c2ccc(Br)cc2c1-c1ccccc1 | > 100 | – | > 100 | 4980 | > 100 | – | > 100 | – | Active | Active | Active | Active | – | – | – | – | – | – | – | – | – |
| O=C(N/N=C/c1cccs1)c1[nH]c2ccc(Br)cc2c1-c1ccccc1 | – | > 10000 | – | > 10000 | – | > 10000 | – | > 10000 | Active | Active | Active | Active | – | – | – | – | – | – | – | – | growth inhibition (GI) (NCI-H522 [2]): Active; growth inhibition (GI) (COLO 205 [3]): Active; growth inhibition (GI) (MDA-MB-435 [4]): Active; growth inhibition (GI) (SK-MEL-5 [5]): Active |
| N#Cc1ccc(/C=N/NC(=O)c2[nH]c3ccc(Br)cc3c2-c2ccccc2)o1 | 82.6 | > 100000 | 198 | 692 | 186 | > 100000 | 231 | > 100000 | Active | Active | Active | Active | 462 | > 100000 | 209 | > 100000 | 324 | > 100000 | 69 | > 100000 | inhibition (Sus scrofa [1]): inactive; growth inhibition (GI) (UACC-62 [15]): Active; growth inhibition (GI) (OVCAR-8 [16]): Active; growth inhibition (GI) (MCF7 [17]): Active; growth inhibition (GI) (K562 [18]): Active |
| O=C(N/N=C/c1ccsc1)c1[nH]c2ccc(Br)cc2c1-c1ccccc1 | > 100 | > 10000 | > 100 | > 10000 | 78.9 | > 10000 | > 100 | > 10000 | Active | Active | Active | Active | – | – | – | – | – | – | – | – | – |
| O=C(N/N=C/c1ccc([N+](=O)[O-])s1)c1[nH]c2ccc(Br)cc2c1-c1ccccc1 | 47.3 | > 100000 | 203 | 795 | 181 | 861 | 214 | 1870 | Active | Active | Active | Active | – | – | – | – | – | – | – | – | inhibition (Sus scrofa [1]): inactive |
| COc1ccc(/C=N/NC(=O)c2[nH]c3ccc(Br)cc3c2-c2ccccc2)o1 | 18.4 | > 100000 | 187 | 659 | 77.5 | 747 | 139 | > 100000 | Active | Active | Active | Active | 53.5 | > 100000 | 84.5 | > 100000 | 34.9 | > 100000 | 47 | > 100000 | growth inhibition (GI) (UACC-62 [15]): Active; growth inhibition (GI) (OVCAR-8 [16]): Active; growth inhibition (GI) (MCF7 [17]): Active; growth inhibition (GI) (K562 [18]): Active |
